Patent US11155517B2, “4-substituted phenylamine derivatives and their use to protect crops by fighting undesired phytopathogenic micoorganisms” (PI INDUSTRIES LTD., priority 2016, dated 2021)

Experiments:
Format in all cases: cell-based
Pyricularia oryzae = test: microbe, parasite or virus in culture; conditions: 168 h, read-out: % control compared to the untreated check (radial growth)
Rhizoctonia solani = Rhizoctonia solani (rice sheath blight/potato black scurf) in vitro test, radial growth on Potato Dextrose Agar; conditions: 168 h, 300 ppm, seven days, 25° C., read-out: % control compared to the untreated check (radial growth)
Botrytis cinerea = Botrytis cinerea (gray mold) in vitro test, radial growth on Potato Dextrose Agar; conditions: 168 h, 300 ppm, seven days, 22° C., read-out: % (control) compared to the untreated check (radial growth)
Alternaria solani = Alternaria solani (early blight of tomato/potato) in vitro test, radial growth on Potato Dextrose Agar; conditions: 168 h, 300 ppm, seven days, 25° C., read-out: % control compared to the untreated check (radial growth)
Colletotrichum capsici = Colletotrichum capsici (anthracnose) in vitro test, radial growth on Potato Dextrose Agar; conditions: Colletotrichum truncatum, 168 h; 300 ppm; seven days, 25° C.; read-out: % control compared to the untreated check (radial growth)
Fusarium culmorum = Fusarium culmorum (foot rot of cereals) in vitro test, radial growth on Potato Dextrose Agar; conditions: for inhibition of growth at 300 ppm: Fusarium culmorum, 168 h, read-out: % control compared to the untreated check (radial growth); for % control compared to the untreated check (radial growth): 300 ppm, seven days, 25° C.
Septoria lycopersici = Septoria lycopersici (leaf spot of tomato) in vitro test, radial growth on Potato Dextrose Agar; conditions: 168 h, seven days, 25° C., read-out: % control compared to the untreated check (radial growth)

Row | Structure (SMILES) | inhibition of growth at 300 ppm (Pyricularia oryzae) | inhibition of growth at 300 ppm (Rhizoctonia solani) | inhibition of growth at 300 ppm (Botrytis cinerea) | inhibition of growth at 300 ppm (Alternaria solani) | inhibition of growth at 300 ppm (Colletotrichum capsici) | inhibition of growth at 300 ppm (Fusarium culmorum) | % control compared to the untreated check (radial growth) (Fusarium culmorum) | inhibition of growth at 300 ppm (Septoria lycopersici)
1 | CCN(C)C=Nc1cc(C)c(Cc2c(F)cccc2Cl)cc1C [Compound 155, N′-(4-(2-chloro-6-fluorobenzyl)-2,5-dimethylphenyl)-N-ethyl-N-methylformimidamide] | > 75% | > 80% | > 80% | > 75% | > 80% | 75% | – | –
2 | CCN(C)C=Nc1cc(C)c(Cc2ccc(F)c(C(F)(F)F)c2)cc1Cl [Compound 181, N′-(2-chloro-4-(4-fluoro-3-(trifluoromethyl)benzyl)-5-methylphenyl)-N-ethyl-N-methylformimidamide] | > 75% | > 80% | > 80% | > 75% | – | 75% | – | –
3 | CCN(C)C=Nc1cc(C)c(Cc2ccc(F)c(C)c2)cc1Cl [Compound 119, N′-(2-chloro-4-(4-fluoro-3-methylbenzyl)-5-methylphenyl)-N-ethyl-N-methylformimidamide] | > 75% | > 80% | > 80% | > 75% | > 80% | 75% | – | –
4 | CCN(C)C=Nc1cc(F)c(Cc2ccccc2Cl)cc1F [Compound 253, N′-(4-(2-chlorobenzyl)-2,5-difluorophenyl)-N-ethyl-N-methylformimidamide] | > 75% | > 80% | > 80% | > 75% | – | 75% | – | –
5 | CCN(C)C=Nc1cc(C)c(Cc2cc(F)cc(F)c2)cc1C [Compound 132, N′-(4-(3,5-difluorobenzyl)-2,5-dimethylphenyl)-N-ethyl-N-methylformimidamide] | > 75% | > 80% | > 80% | > 75% | > 80% | 75% | – | –
6 | CCN(C)C=Nc1cc(C)c(Cc2ccc(OC(F)(F)F)cc2)cc1Cl [Compound 121, N′-(2-chloro-5-methyl-4-(4-(trifluoromethoxy)benzyl)phenyl)-N-ethyl-N-methylformimidamide] | > 75% | > 80% | > 80% | > 75% | > 80% | 75% | – | –
7 | Cc1cc(N=CN(C)CC2CC2)c(C)cc1Cc1ccccc1F [Compound 87, N-(cyclopropylmethyl)-N-(4-(2-fluorobenzyl)-2,5-dimethylphenyl)-N-methylformimidamide] | – | – | – | – | – | – | 75% | –
8 | CCN(C)C=Nc1cc(C)c(Cc2ccc(F)cc2Cl)cc1Cl [Compound 99, N′-(2-chloro-4-(2-chloro-4-fluorobenzyl)-5-methylphenyl)-N-ethyl-N-methylformimidamide] | > 75% | > 80% | > 80% | > 75% | > 80% | 75% | – | –
9 | CCN(C)C=Nc1cc(C)c(Cc2cccc(C)c2C)cc1Cl [Compound 170, N-(2-chloro-4-(2,3-dimethylbenzyl)-5-methylphenyl)-N-ethyl-N-methylformimidamide] | – | – | – | – | – | – | 75% | –
10 | CCN(C)C=Nc1cc(Cl)c(C(C)(C(=O)N(C)C)c2cccc(F)c2)cc1C (centres unmarked) [Compound 239, 2-(2-chloro-4-(((ethyl(methyl)amino)methylene)amino)-5-methylphenyl)-2-(3-fluorophenyl)-N,N-dimethylpropanamide] | > 75% | > 80% | > 80% | > 75% | > 80% | 75% | – | –
11 | CCN(C)C=Nc1cc(C)c(Cc2ccc(Cl)cc2)cc1Cl [Compound 79, N′-(2-chloro-4-(4-chlorobenzyl)-5-methylphenyl)-N-ethyl-N-methylformimidamide] | > 75% | > 80% | > 80% | > 75% | > 80% | 75% | – | –
12 | CCN(C)C=Nc1cc(C)c(Cc2ccc(C)cc2)cc1F [Compound 211, N-ethyl-N-(2-fluoro-5-methyl-4-(4-methylbenzyl)phenyl)-N-methylformimidamide] | – | – | – | – | – | – | 75% | –
13 | CCN(C)C=Nc1cc(C)c(Cc2cc(C)cc(C)c2)cc1Cl [Compound 130, N′-(2-chloro-4-(3,5-dimethylbenzyl)-5-methylphenyl)-N-ethyl-N-methylformimidamide] | > 75% | > 80% | > 80% | > 75% | > 80% | – | – | > 70%
14 | CCN(C)C=Nc1cc(C)c(Cc2c(Cl)cccc2Cl)cc1C [Compound 153, N′-(4-(2,6-dichlorobenzyl)-2,5-dimethylphenyl)-N-ethyl-N-methylformimidamide] | > 75% | > 80% | > 80% | > 75% | > 80% | 75% | – | –
15 | CCN(C)C=Nc1cc(C)c(Cc2cccc(Cl)c2)cc1Cl [Compound 78, N′-(2-chloro-4-(3-chlorobenzyl)-5-methylphenyl)-N-ethyl-N-methylformimidamide] | > 75% | > 80% | > 80% | > 75% | > 80% | 75% | – | –
16 | CCN(C)C=Nc1cc(C)c(Cc2cc(C(F)(F)F)cc(Cl)c2F)cc1C [Compound 134, N′-(4-(3-chloro-2-fluoro-5-(trifluoromethyl)benzyl)-2,5-dimethylphenyl)-N-ethyl-N-methylformimidamide] | > 75% | > 80% | > 80% | > 75% | > 80% | – | – | > 70%
17 | CCN(C)C=Nc1cc(F)c(Cc2cccc(F)c2)cc1F [Compound 269, N′-(2,5-difluoro-4-(3-fluorobenzyl)phenyl)-N-ethyl-N-methylformimidamide] | > 75% | > 80% | > 80% | > 75% | > 80% | 75% | – | –
18 | CCN(C)C=Nc1cc(C)c(Cc2ccccc2OC(F)(F)F)cc1C [Compound 116, N′-(2,5-dimethyl-4-(2-(trifluoromethoxy)benzyl)phenyl)-N-ethyl-N-methylformimidamide] | > 75% | > 80% | > 80% | > 75% | > 80% | – | – | > 70%
19 | CCN(C)C=Nc1cc(C)c(Cc2ccc(Cl)c(OC(F)(F)F)c2)cc1Cl [Compound 177, N′-(2-chloro-4-(4-chloro-3-(trifluoromethoxy)benzyl)-5-methylphenyl)-N-ethyl-N-methylformimidamide] | > 75% | > 80% | > 80% | > 75% | > 80% | – | – | > 70%
20 | CCN(C)C=Nc1cc(C)c(C(C#N)c2ccc(F)cc2)cc1Cl (centres unmarked) [Compound 189, N′-(2-chloro-4-(cyano(4-fluorophenyl)methyl)-5-methylphenyl)-N-ethyl-N-methylformimidamide] | > 75% | > 80% | > 80% | – | – | 75% | – | –
21 | Cc1cc(N=CN2CCCCC2)c(C)cc1Cc1cccc(Br)c1F [Compound 37, N-(4-(3-bromo-2-fluorobenzyl)-2,5-dimethylphenyl)-1-(piperidin-1-yl)methanimine] | > 75% | > 80% | > 80% | > 75% | > 80% | – | – | > 70%
22 | CCN(C)C=Nc1cc(C)c(Cc2cccc(C(F)(F)F)c2)cc1Cl [Compound 80, N′-(2-chloro-5-methyl-4-(3-(trifluoromethyl)benzyl)phenyl)-N-ethyl-N-methylformimidamide] | > 75% | > 80% | > 80% | > 75% | > 80% | 75% | – | –
23 | CCN(C)C=Nc1cc(C)c(Cc2cc(F)cc(OC)c2)cc1C [Compound 156, N-ethyl-N′-(4-(3-fluoro-5-methoxybenzyl)-2,5-dimethylphenyl)-N-methylformimidamide] | > 75% | > 80% | > 80% | > 75% | > 80% | 75% | – | –
